Key:
[1] = Solubility of TPA carboxylates, Example 6; type: physicochemical; conditions: aqueous; table title ambient temperature, text 37° C.
[2] = Initial hydrolysis of TPA carboxylates monitored by HPLC at 37° C.; type: physicochemical; conditions: H2O, I=0.02 M
Protocol: The slowest initial hydrolysis rate was found for complex 2c t-[Pt(OAc)2(NH3)(2-pic)], with just 4% hydrolysis occurring after 9 h. The hydrolysis of the formate complex 4f was the fastest, with 24% hydrolysis occurring after 9 h. The hydrolysis rates of the acetate complexes followed the pattern 2c<4c<3c. […] Thus, hydrolysis of the acetate complexes is slowed by an approximate order of magnitude compared to their direct chloro analogs but there is little difference in the present case between 3- and 4-picoline. Steric hindrance therefore predominates over the electronic effects of the methyl group. In the case of the chloride complexes, the 3-pic directs less electron density to the platinum rendering it less nucleophilic relative to the 2-pic and 4-pic. 14 We observe the same trend in the acetate complexes, but the effect is lessened due to the carboxylate group being a weak ligand, with a low trans influence and trans effect.^11

[3] = test system: guanosine-5′-monophosphate (5′-GMP, model for DNA); experiment: Reaction with 5′-GMP followed by 195Pt NMR; conditions: within 24 h
Text: The slow hydrolysis is a unique feature of two carboxylate ligands in a trans-axial position and can be modulated by choice of carboxylate. To examine how this might affect possible reactions with biomolecules, a preliminary study of the reactions of 4e with guanosine-5′-monophosphate (5′-GMP, model for DNA) and N-acetyl-L-methionine (N-AcMet, model for sulfur ligand metabolism) was made by ^195Pt NMR Spectroscopy. In the case of 5′-GMP the peak of the starting material at −1450 ppm is only gradually replaced by a new peak at −2365 ppm. This shift is consistent with the formation of a species that has a PtN4 coordination sphere,^26 due to replacement of both formate groups. Approximately 50% reaction (as judged by the intensity of the ^1H H8 signal and ^195Pt NMR signals), occurred within 24h. For N-AcMet the starting material was approximately 50% of total intensity even after 8 h. […] The chemical shift is consistent with a PtN2O2 coordination sphere—this could arise from displacement of formate by H2O/OH or an O-bound methionine.^27 This species preceded the formation of the N-AcMet product at −3320 ppm consistent with a PtN2S2 coordination sphere, trans-[Pt(NH3)(4-pic)(NAcMet)2],^23,28 which was 40% of the total platinum species after 10 h. […]

[4] = Reaction with N-AcMet followed by 195Pt NMR
Text: The slow hydrolysis is a unique feature of two carboxylate ligands in a trans-axial position and can be modulated by choice of carboxylate. To examine how this might affect possible reactions with biomolecules, a preliminary study of the reactions of 4e with guanosine-5′-monophosphate (5′-GMP, model for DNA) and N-acetyl-L-methionine (N-AcMet, model for sulfur ligand metabolism) was made by ^195Pt NMR Spectroscopy. In the case of 5′-GMP the peak of the starting material at −1450 ppm is only gradually replaced by a new peak at −2365 ppm. This shift is consistent with the formation of a species that has a PtN4 coordination sphere,^26 due to replacement of both formate groups. Approximately 50% reaction (as judged by the intensity of the ^1H H8 signal and ^195Pt NMR signals), occurred within 24h. For N-AcMet the starting material was approximately 50% of total intensity even after 8 h. […] The chemical shift is consistent with a PtN2O2 coordination sphere—this could arise from displacement of formate by H2O/OH or an O-bound methionine.^27 This species preceded the formation of the N-AcMet product at −3320 ppm consistent with a PtN2S2 coordination sphere, trans-[Pt(NH3)(4-pic)(NAcMet)2],^23,28 which was 40% of the total platinum species after 10 h. […] Whether the possible formation of an O-bound methionine species is a reflection of the low pKal and the electronic effects of a π-acceptor ligand is worthy of further investigation.

[5] = test system: human ovarian cancer cell line A2780; experiment: MTT growth inhibition assay; type: cell-based; conditions: 72 h
Text: • (1) Van Beusichem, M.; Farrell, N. Inorg. Chem. 1992, 31, 634-639. • (2) Farrell, N.; Kelland, L. R.; Roberts, J. D.; Van Beusichem, M. Cancer Res. 1992, 52, 5065-5072. • (3) Farrell, N. Cancer Invest. 1993, 11, 578-589. • (4) Coluccia, M.; Nassi, A.; Loseto, F.; Boccarelli, A.; Mariggio, M. A.; Giordano, D.; Intini, F. P.; Caputo, P.; Natile, G. J. Med. Chem. 1993, 36, 510-512. • (5) Khazanov, E.; Barenholz, Y.; Gibson, D.; Najajreh, Y. J. Med. Chem. 2002, 45, 5196-5204. • (6) Najajreh, Y.; Perez, J. M.; Navarro-Ranninger, C.; Gibson, D. J. Med. Chem. 2002, 45, 5189-5195. • (7) Montero, E. I.; Diaz, S.; Gonzalez-Vadillo, A. M.; Perez, J. M.; Alonso, C.; Navarro-Ranninger, C. J. Med. Chem. 1999, 42, 4264-4268. • (8) Natile, G.; Coluccia, M. Coord. Chem. Rev. 2001, 216-217, 383-410. • (9) Fojo, T.; Farrell, N.; Ortuzar, W.; Tanimura, H.; Weinstein, J.; Myers Timothy, G. I Crit. Rev. Oncol./ Hematol. 2005, 53, 25-34. • (10) Murphy, R. F.; Farrell, N.; Aguila, A.; Okada, M.; Balis, F. M.; Fojo, T. Proc. Am. Assoc. […] IC50 values were determined graphically

[6] = Aqueous solubility of TPA-acetate complexes (sequential addition of water); type: physicochemical; conditions: ambient temperature
Protocol: (§1) The aqueous solubility of the acetate compounds and the acid dissociation constants of the corresponding aqua species are given in Table 1. Use of acetates enhances aqueous solubility which is dependent on the exact nature of the donor ligands. The pKa values were determined by potentiometric titration of solutions of trans-[Pt(H2O)2(L)(L′)]^2+ (formed by the dissolution of the isolated trans-[Pt(NO3)2(L)(L′)]) with NaOH. […] (X=2,3,4-Me).^30

[7] = pKa of corresponding TPA diaqua complexes by potentiometric titration with NaOH; type: physicochemical; conditions: corresponding diaqua complex trans-[Pt(OH2)2(L)(L′)], ambient temperature
Protocol: as §1

[8] = Hydrolysis (first aquation step) followed by HPLC, Example 5; type: physicochemical; conditions: nanopure water
Protocol: For hydrolysis studies, […] complex was dissolved in 1 mL of nanopure water. The pH values of the samples were controlled in regular intervals and readjusted if necessary by addition of HNO3 (1 M, 0.1 M, 0.01 M) or NaOH (1 M, 0.1 M, 0.01 M). Aliquots of 20 μL were taken from the bulk solution for HPLC analysis. The overall scheme may be described as follows:
The aquated species were identified by comparison with the hydrolysis profile produced by the corresponding (labile) nitrate compounds. The rate constants for the first aquation step k1 are given in Table 2 and compared with other platinum complexes containing one or two labile ligands. […] In particular, these rates are 2-3 orders of magnitude lower than that of transplatin itself. The rate of aquation tends toward that of carboplatin which in phosphate buffer at 310 K gave a hydrolysis rate of 7.2×10^−7 s^−1 (but in aqueous solution gives a barely measurable rate constant of <5×10^−9 s^−1, which is modulated by the presence of buffer, nucleophile or acid). ^31,32No evidence for formation of Pt(TV) species during hydrolysis is detected under these conditions.^33

41M = experiment: Growth inhibition in human ovarian cancer cell line panel, 96 h exposure; type: cell-based
Protocol: (§2) It is noteworthy that the acetate compounds maintain cytotoxicity with low resistance factors in all cases. The trans-[Pt(OAc)2(NH3)2] compound is also very water-soluble but the cytotoxicity of >100 μM confirms the requirement for a planar amine to enhance cytotoxicity in the trans geometry.

A2780 = experiment: as above; type: cell-based
Protocol: as §2

CH1 = experiment: as above; type: cell-based
Protocol: as §2

[9] = RF = (IC50 Resistant)/(IC50 Sensitive)

| Structure (SMILES) | Solubility (mg/mL), TPA Substituted Carboxylates [1] | k1, initial hydrolysis rate constant [2] | reaction with 5′-GMP (by 1H H8 and 195Pt NMR signal intensity) [3] | starting material remaining, of total intensity ([4]; after 8 h) | N-AcMet product at −3320 ppm (PtN2S2), of total platinum species ([4]; after 10 h) | new species at −1775 ppm (PtN2O2), of total reaction product ([4]; over 10 h) | cytotoxicity (growth inhibition) [5] | Solubility [6] | pKa1 [7] | pKa2 [7] | k1, rate constant for the first aquation step [8] | IC50 (41M) | 41M RF (41M; [9]) | IC50 (A2780) | A2780 RF (A2780; [9]) | IC50 (CH1) | CH1 RF (CH1; [9]) |
| --- | --- | --- | --- | --- | --- | --- | --- | --- | --- | --- | --- | --- | --- | --- | --- | --- | --- |
| Cc1ccncc1.N.O=C[O-].O=C[O-].[Pt+2] [4e, trans-[Pt(OFm)2(NH3)(4-pic)]] | 35 mg/mL | 1.07e-05 s⁻¹ | Approximately 50% | Approximately 50% | 40% | ≤ 15% | most cytotoxic | – | – | – | – | – | – | – | – | – | – |
| CC(=O)[O-].CC(=O)[O-].N.[Pt+2].c1ccc2cnccc2c1 [trans-[Pt(OAc)2(NH3)(iquin)], trans-[diacetato(ammine)(isoquinoline)platinum(II)]] | – | – | – | – | – | – | – | 5.2 mg/mL | 3.78 | 6.92 | (7.4 ± 1.5) × 10^−7 s^−1 | 22 µM | (0.26) | 13 µM | (1.69) | 20 µM | (0.37) |
